Measured values: patent US10363247B2, “(S,E)-3-(6-aminopyridin-3-yl)-N-((5-(4-(3-fluoro-3-methylpyrrolidine-1-carbonyl)phenyl-7-(4-fluorophenyl)benzofuran-2-yl)methyl)acrylamide for the treatment of cancer” (Karyopharm Therapeutics Inc., priority 2015, dated 2019)

Tests used:
MS751 cells = experiment: MTT cell proliferation assay, MS751 cells; format: cell-based, human; conditions: approximately 64-72 hours incubation
Method: (§1) The MTT cell proliferation assay was used to study the cytotoxic properties of the compounds. The assay was performed according to the method described by Roche Molecular Biochemicals, with minor modifications. The assay is based on the cleavage of the tetrazolium salt, MTT, in the presence of an electron-coupling reagent. The water-insoluble formazan salt produced must be solubilized in an additional step. Cells grown in a 96-well tissue culture plate were incubated with the MTT solution for approximately 4 hours. After this incubation period, a water-insoluble formazan dye formed. After solubilization, the formazan dye was quantitated using a scanning multi-well spectrophotometer (ELISA reader). […] The cells were seeded at 5,000-10,000 cells in each well of 96-well plate in 100 μL of fresh culture medium and were allowed to attach overnight. The stock solutions of the compounds were diluted in 100 μL cell culture medium to obtain eight concentrations of each test compound, ranging from 1 nM to 30 μM. […] All optical densities were measured at 490 nm using a Vmax Kinetic Microplate Reader (Molecular Devices). In most cases, the assay was performed in duplicate and the results were presented as a mean percent inhibition to the negative control±SE. The following formula was used to calculate the percent of inhibition: Inhibition (%)=(1-(ODo/OD))×100.
(§2) The compounds were tested against MS751, Z138 and 3T3 cells. The MS751 cell line is derived from a metastasis to lymph node of human cervix from a patient diagnosed with squameous cell carcinoma of the cervix. The Z138 cell line is a mature B-cell acute lymphoblastic leukemia cell line derived from a patient with chronic lymphocytic leukemia. 3T3 cells are standard fibroblast cells; they were originally isolated from Swiss mouse embryo tissue.

3T3 cells = experiment: MTT cell proliferation assay, 3T3 cells; format: cell-based, mouse
Method: as §1, §2

Z138 cells = experiment: MTT cell proliferation assay, Z138 cells; format: cell-based, human; conditions: approximately 64-72 hours incubation
Method: as §1, §2

[1] = test system: Molt-4 T-ALL cancer xenograft; NCI-H520 lung cancer xenograft; experiment: Xenograft models in mice (Molt-4 T-ALL in SCID mice; NCI-H520 lung cancer in nu/nu mice); format: in vivo, mouse; conditions: Molt-4 xenograft 10 and 20 mg/kg PO BID; H520 xenograft 100 mg/kg PO BID
Method: In this study, the impact of the compound of Example 2 on tumor growth was tested using the Molt-4 T-ALL cancer xenograft model in SCID mice. MOLT 4 (CRL-1582) acute lymphoblastic leukemia cells were obtained from ATCC. These cells were grown in RPMI-1640 medium supplemented with 10% fetal bovine serum, 1% penicillin and streptomycin. Cells were sub-cultured by transferring floating cells to a new flask and trypsinizing adherent cells before subculturing at a ratio of 1:4. Molt-4 cells were harvested by centrifugation and counted using a hemocytometer. Cells were resuspended in PBS at a 5×10^7 cells per mL. Cells were placed on ice and mixed with an equal volume of Matrigel (BD Biosciences CB-40234). This mixture was kept on ice and injected into the left flank of mice in a volume of […], equivalent to 5×10^6 cells per mouse. Twenty-four (24) CB-17 SCID mice were inoculated subcutaneously in the left flank Molt-4 cells. Treatment was initiated when the tumors reached a mean volume of ˜135 mm^3. […] Animal weights and conditions were recorded daily, and tumors were measured on Mondays, Wednesdays and Fridays.
In this study, the impact of the compound of Example 2 on tumor growth was tested using the NCI-H520 lung cancer xenograft model in nu/nu mice. […] Animal weights and conditions were recorded daily, and tumors were measured on Mondays, Wednesdays and Fridays.

Plasma protein binding = format: in vitro ADME; conditions: human plasma
[2] = Homo sapiens, MS751, MS751 cells
[3] = Mus musculus, NIH3T3, approximately 64-72 hours incubation
[4] = Homo sapiens, Z-138, Z138 cells
[5] = approximately 64-72 hours incubation

Row | Fraction of Bound (Plasma protein binding) [%] | Compound | IC50 (MS751 cells; [2]) [µM] | IC50 (3T3 cells; [3]) [µM] | IC50 (Z138 cells; [4]) [µM] | IC50 (MS751 cells; MS751 cells) [µM] | IC50 (3T3 cells; [5]) [µM] | IC50 (Z138 cells; Z138 cells) [µM] | efficacy in vivo (tumor growth) [1]
1 | – | CC1(F)CCN(C(=O)c2ccc(-c3cc(-c4ccc(F)cc4)c4oc(CNC(=O)/C=C/c5ccc(N)nc5)cc4c3)cc2)C1 (racemic) [Example 1, (±)-(E)-3-(6-aminopyridin-3-yl)-N-((5-(4-(3-fluoro-3-methylpyrrolidine-1-carbonyl)phenyl)-7-(4-fluorophenyl)benzofuran-2-yl)methyl)acrylamide] | 0.03 | 1.26 | < 0.005 | – | – | – | –
2 | – | CC1(F)CCN(C(=O)c2ccc(-c3cc(C(F)(F)F)c4oc(CNC(=O)/C=C/c5ccc(N)nc5)cc4c3)cc2)C1 (single isomer, unassigned) [Example X-2, (E)-3-(6-aminopyridin-3-yl)-N-((5-(4-(3-fluoro-3-methylpyrrolidine-1-carbonyl)phenyl)-7-(trifluoromethyl)benzofuran-2-yl)methyl)acrylamide] | – | – | – | 0.52 | > 10 | 0.24 | –
3 | – | CC1(F)CCN(C(=O)c2ccc(-c3cc(C(F)(F)F)c4oc(CNC(=O)/C=C/c5ccc(N)nc5)cc4c3)cc2)C1 (single isomer, unassigned) [Example X-3, (E)-3-(6-aminopyridin-3-yl)-N-((5-(4-(3-fluoro-3-methylpyrrolidine-1-carbonyl)phenyl)-7-(trifluoromethyl)benzofuran-2-yl)methyl)acrylamide] | – | > 10 | – | 0.4 | – | 0.4 | –
4 | – | CC1(F)CCN(C(=O)c2ccc(-c3cc(C(F)(F)F)c4oc(CNC(=O)/C=C/c5ccc(N)nc5)cc4c3)cc2)C1 (single isomer, unassigned) [Example X-4, (E)-3-(6-aminopyridin-3-yl)-N-((5-(4-(3-fluoro-3-methylpyrrolidine-1-carbonyl)phenyl)-7-(trifluoromethyl)benzofuran-2-yl)methyl)acrylamide] | – | – | – | 2.1 | > 10 | 1.5 | –
5 | 95.2 | C[C@]1(F)CCN(C(=O)c2ccc(-c3cc(-c4ccc(F)cc4)c4oc(CNC(=O)/C=C/c5ccc(N)nc5)cc4c3)cc2)C1 [Example 2, (S,E)-3-(6-aminopyridin-3-yl)-N-((5-(4-(3-fluoro-3-methylpyrrolidine-1-carbonyl)phenyl)-7-(4-fluorophenyl)benzofuran-2-yl)methyl)acrylamide] | 0.008 | 1.18 | < 0.005 | – | – | – | demonstrated efficacy in vivo
6 | – | C[C@@]1(F)CCN(C(=O)c2ccc(-c3cc(-c4ccc(F)cc4)c4oc(CNC(=O)/C=C/c5ccc(N)nc5)cc4c3)cc2)C1 [Example 3, (R,E)-3-(6-aminopyridin-3-yl)-N-((5-(4-(3-fluoro-3-methylpyrrolidine-1-carbonyl)phenyl)-7-(4-fluorophenyl)benzofuran-2-yl)methyl)acrylamide] | 0.09 | > 10 | 0.02 | – | – | – | –
7 | 100 | Nc1ccc(/C=C/C(=O)NCc2cc3cc(-c4ccc(C(=O)N5CCC(F)(F)CC5)cc4)cc(-c4ccc(F)cc4)c3o2)cn1 [Example X-1, (E)-3-(6-aminopyridin-3-yl)-N-((5-(4-(4,4-difluoropiperidine-1-carbonyl)phenyl)-7-(4-fluorophenyl)benzofuran-2-yl)methyl)acrylamide] | 0.05 | 3.6 | 0.018 | – | – | – | –
